The subject of test [1] is Acinetobacter baumannii. The experiment in a line: Antimicrobial activity against Acinetobacter baumannii isolates by agar dilution method. It is filed as functional. On the technique in general: In agar dilution the substance is mixed into plates at graded concentrations.
Test [2] addresses Metallo-beta-lactamase (Acinetobacter baumannii) (UniProt Q4F6N3). The experiment in a line: Activity of Acinetobacter baumannii isolate TZ42/166 VIM-1 assessed as compound hydrolysis.
For test [3] the target is unchanged. Nature of the test: Activity of Acinetobacter baumannii isolate TZ42/166 VIM-1 assessed as compound hydrolysis in presence of EDTA.
Test [4] shares this target. Nature of the test: Activity of Acinetobacter baumannii VIM-1 assessed as compound hydrolysis.
The target of test [5] is BlaVIM-1 (Escherichia coli) (UniProt Q8GDC1). The experiment in a line: Inhibition of VIM-1 activity in Escherichia coli extracts at 100 uM.

Structures are written as SMILES. Values after ≈ are worked out from the molar mass of the structure shown. Some results are limits rather than exact numbers.

What is called MIC is the least concentration at which growth counts as inhibited. High values mean a need for much substance, low ones inhibition by little substance. In test [1], `C[C@H]1[C@H](NC(=O)/C(=N\OC(C)(C)C(=O)O)c2csc(N)n2)C(=O)N1S(=O)(=O)O` [AZTREONAM] gave an MIC above 64 µg/mL.

`CO/N=C(\C(=O)N[C@@H]1C(=O)N2C(C(=O)[O-])=C(C[N+]3(C)CCCC3)CS[C@H]12)c1csc(N)n1` [CEFEPIME] returned an MIC in test [1] above 64 µg/mL.

In test [1], `CO/N=C(\C(=O)N[C@@H]1C(=O)N2C(C(=O)O)=C(COC(C)=O)CS[C@H]12)c1csc(N)n1` [CEFOTAXIME] registered an MIC above 64 µg/mL.

With `CC(C)(O/N=C(\C(=O)N[C@@H]1C(=O)N2C(C(=O)[O-])=C(C[n+]3ccccc3)CS[C@H]12)c1csc(N)n1)C(=O)O` [CEFTAZIDIME], the MIC in test [1] was above 64 µg/mL.

The inhibition is the percentage by which the read-out fell short of the control. The low end stands for little suppression, the high end for strong suppression. Regarding `C[C@@H](O)[C@H]1C(=O)N2C(C(=O)O)=C(SCCNC=N)C[C@H]12` [IMIPENEM ANHYDROUS], the values for the Activity in test [2], in test [3] and in test [4] were 90 U, 1.5 U and 28 U, respectively. The MIC in test [1] was 16 µg/mL (≈ 53.4 µM). For the same molecule, in test [5], the inhibition was above 95%.

On to `C[C@@H](O)[C@H]1C(=O)N2C(C(=O)O)=C(S[C@@H]3CN[C@H](C(=O)N(C)C)C3)[C@H](C)[C@H]12` [MEROPENEM], for which the MIC in test [1] came out at 16 µg/mL (≈ 41.7 µM).

The record behind these values is ChEMBL document CHEMBL1255314, “Outbreak of Acinetobacter baumannii with chromosomally encoded VIM-1 undetectable by imipenem-EDTA synergy tests” (2008).
